In patent publication US7468369B2, “Sulfonyl pyrrolidines, method for producing the same and their use as drugs” (Sanofi-Aventis, priority 2005, dated 2008):
pEC50: −log10 of the molar value. Where a name gives a salt, the structure may show the parent alone. Read-outs that look alike come from different tables or passages of the source.

Tested on: human ABCA1 promoter
Assay: ABCA1 promoter test (luciferase reporter in stably transfected THP1 cell line)
Type: cell-based
Conditions: ABCA1 reporter cell line (THP1, PMA-differentiated), 24 h incubation, luciferase chemiluminescence, read-out: E50 ABCA1
Procedure, shortened: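 PMA-differentiated THP1 macrophages stably carrying a 3.2 kb human ABCA1 promoter-luciferase construct, treated 24 h at 37° C with 11 concentrations ([…] to 330 pM, DMSO <0.1%). Luciferase read by luminescence after lysis; EC50 from dose-response plots.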

`COc1cccc(S(=O)(=O)N2C[C@@H](C(=O)N3CCN(c4cc(C)ccc4C)CC3)[C@H](c3cccc(C)c3)C2)c1` [Example 102, [4-(2,5-Dimethylphenyl)piperazin-1-yl]-[1-(3-methoxybenzenesulfonyl)-3,4-trans-4-m-tolylpyrrolidin-3-yl]methanone trifluoroacetate] gave a pEC50 (Homo sapiens, THP-1) of 5.98.
`COC(=O)c1cc(C)c(S(=O)(=O)N2C[C@@H](C(=O)N3CCN(c4cc(C)ccc4C)CC3)[C@H](c3ccccc3)C2)s1` (racemic) [Example 50, Methyl 5-{3,4-trans-3-[4-(2,5-dimethylphenyl)piperazine-1-carbonyl]-4-phenylpyrrolidine-1-sulfonyl}-4-methylthiophene-2-carboxylate] was tested, and the pEC50 (Homo sapiens, THP-1) was 5.13.
With `COc1ccc(N2CCN(C(=O)[C@@H]3CN(S(=O)(=O)c4cc(Cl)c(Cl)s4)C[C@H]3c3ccccc3)CC2)cc1` (racemic) [Example 61, [1-(4,5-Dichlorothiophene-2-sulfonyl)-3,4-trans-4-phenylpyrrolidin-3-yl]-[4-(4-methoxyphenyl)piperazin-1-yl]methanone] the pEC50 (Homo sapiens, THP-1) was 5.58.
Molecule `Cc1ccc(C)c(N2CCN(C(=O)[C@@H]3CN(S(=O)(=O)c4cccs4)C[C@H]3c3ccccc3)CC2)c1` (racemic) [Example 67, [4-(2,5-Dimethylphenyl)piperazin-1-yl]-[3,4-trans-4-phenyl-1-(thiophene-2-sulfonyl)pyrrolidin-3-yl]methanone] has a pEC50 (Homo sapiens, THP-1) of 5.66.
Molecule `Cc1ccc(N2CCN(C(=O)[C@@H]3CN(S(=O)(=O)c4ccc(Cl)s4)C[C@H]3c3ccccc3)CC2)cc1C` (racemic) [Example 44, [1-(5-Chlorothiophene-2-sulfonyl)-3,4-trans-4-phenylpyrrolidin-3-yl]-[4-(3,4-dimethylphenyl)piperazin-1-yl]methanone] has a pEC50 (Homo sapiens, THP-1) of 4.82.
For `O=C([C@@H]1CN(S(=O)(=O)c2cccnc2)C[C@H]1c1ccccc1)N1CCN(c2cc(Cl)ccc2Cl)CC1` [Example 73, [4-(2,5-Dichlorophenyl)piperazin-1-yl]-[3,4-trans-4-phenyl-1-(pyridine-3-sulfonyl)pyrrolidin-3-yl]methanone trifluoroacetate], the pEC50 (Homo sapiens, THP-1) was 6.39.
Molecule `COc1cccc(S(=O)(=O)N2C[C@@H](C(=O)N3CCN(c4cc(OC)ccc4OC)CC3)[C@H](c3ccccc3)C2)c1` [Example 82, [4-(2,5-Dimethoxyphenyl)piperazin-1-yl]-[1-(3-methoxybenzenesulfonyl)-3,4-trans-4-phenylpyrrolidin-3-yl]methanone trifluoroacetate] has a pEC50 (Homo sapiens, THP-1) of 5.83.
Molecule `COc1ccccc1N1CCN(C(=O)[C@@H]2CN(S(=O)(=O)c3cc(Cl)c(Cl)s3)C[C@H]2c2ccccc2)CC1` (racemic) [Example 27, [1-(4,5-Dichlorothiophene-2-sulfonyl)-3,4-trans-4-phenylpyrrolidin-3-yl]-[4-(2-methoxyphenyl)piperazin-1-yl]methanone] has a pEC50 (Homo sapiens, THP-1) of 5.16.
For `COc1cccc(S(=O)(=O)N2CC(C(=O)N3CCN(c4cc(C)ccc4C)CC3)C(c3ccsc3)C2)c1` (stereo not drawn) [Example 110, [4-(2,5-Dimethylphenyl)piperazin-1-yl]-[1-(3-methoxybenzenesulfonyl)-3,4-trans-4-thiophen-3-ylpyrrolidin-3-yl]methanone trifluoroacetate], the pEC50 was 6.04.
`COc1ccccc1N1CCN(C(=O)[C@@H]2CN(S(=O)(=O)c3ccc(Cl)s3)C[C@H]2c2ccccc2)CC1` (racemic) [Example 26, [1-(5-Chlorothiophene-2-sulfonyl)-3,4-trans-4-phenylpyrrolidin-3-yl]-[4-(2-methoxyphenyl)piperazin-1-yl]methanone] was tested, and the pEC50 (Homo sapiens, THP-1) was 5.53.
With `CC(=O)c1ccc(N2CCN(C(=O)[C@@H]3CN(S(=O)(=O)c4cccs4)C[C@H]3c3ccccc3)CC2)cc1` (racemic) [Example 7, 1-(4-{4-[3,4-trans-4-Phenyl-1-(thiophene-2-sulfonyl)pyrrolidine-3-carbonyl]-piperazin-1-yl}phenyl)ethanone] the pEC50 (Homo sapiens, THP-1) was 4.88.
For `Cc1cccc([C@@H]2CN(S(=O)(=O)c3c(C)noc3C)C[C@H]2C(=O)N2CCN(c3cc(C)ccc3C)CC2)c1` [Example 101, [1-(3,5-Dimethylisoxazole-4-sulfonyl)-3,4-trans-4-m-tolylpyrrolidin-3-yl]-[4-(2,5-dimethylphenyl)piperazin-1-yl]methanone trifluoroacetate], the pEC50 (Homo sapiens, THP-1) was 5.73.
`O=C([C@@H]1CN(S(=O)(=O)c2cc(Cl)c(Cl)s2)C[C@H]1c1ccccc1)N1CCN(c2cccc(C(F)(F)F)c2)CC1` (racemic) [Example 33, [1-(4,5-Dichlorothiophene-2-sulfonyl)-3,4-trans-4-phenylpyrrolidin-3-yl]-[4-(3-trifluoromethylphenyl)piperazin-1-yl]methanone] gave a pEC50 (Homo sapiens, THP-1) of 5.18.
`Cc1ccc([C@@H]2CN(S(=O)(=O)c3c(C)noc3C)C[C@H]2C(=O)N2CCN(c3cc(C)ccc3C)CC2)cc1` [Example 1, [1-(3,5-Dimethylisoxazole-4-sulfonyl)-3,4-trans-4-p-tolylpyrrolidin-3-yl]-[4-(2,5-dimethylphenyl)piperazin-1-yl]methanone trifluoroacetate] was tested, and the pEC50 (Homo sapiens, THP-1) was 5.55.
Molecule `Cc1ccc(C)c(N2CCN(C(=O)[C@@H]3CN(S(=O)(=O)c4c(C)noc4C)C[C@H]3C)CC2)c1` [Example 90, [[1-(3,5-Dimethylisoxazole-4-sulfonyl)-3,4-trans-4-methylpyrrolidin-3-yl]-[4-(2,5-dimethylphenyl)piperazin-1-yl]methanone trifluoroacetate] has a pEC50 (Homo sapiens, THP-1) of 4.78.
`O=C([C@@H]1CN(S(=O)(=O)c2cc(Br)c(Br)s2)C[C@H]1c1ccccc1)N1CCN(c2ccccc2)CC1` (racemic) [Example 64, [1-(4,5-Dibromothiophene-2-sulfonyl)-3,4-trans-4-phenylpyrrolidin-3-yl]-(4-phenylpiperazin-1-yl)methanone] showed a pEC50 (Homo sapiens, THP-1) of 5.50.
In the case of `Cc1ccc(C)c(N2CCN(C(=O)[C@@H]3CN(S(=O)(=O)c4c(C)noc4C)C[C@H]3c3ccoc3)CC2)c1` [Example 115, [1-(3,5-Dimethylisoxazole-4-sulfonyl)-3,4-trans-4-furan-3-ylpyrrolidin-3-yl]-[4-(2,5-dimethylphenyl)piperazin-1-yl]methanone trifluoroacetate], the pEC50 (Homo sapiens, THP-1) was 5.58.
`Cc1ccc(C)c(N2CCN(C(=O)[C@@H]3CN(S(=O)(=O)C(C)C)C[C@H]3c3ccccc3)CC2)c1` [Example 70, [4-(2,5-Dimethylphenyl)piperazin-1-yl]-[3,4-trans-4-phenyl-1-(propan-2-sulfonyl)pyrrolidin-3-yl]methanone trifluoroacetate] gave a pEC50 (Homo sapiens, THP-1) of 6.04.
Work on `O=C([C@@H]1CN(S(=O)(=O)c2cccs2)C[C@H]1c1ccccc1)N1CCN(c2cc(Cl)ccc2Cl)CC1` [Example 66, [4-(2,5-Dichlorophenyl)piperazin-1-yl]-[3,4-trans-4-phenyl-1-(thiophene-2-sulfonyl)pyrrolidin-3-yl]methanone trifluoroacetate] yielded a pEC50 (Homo sapiens, THP-1) of 6.36.
In the case of `Cc1ccc(C)c(N2CCN(C(=O)[C@H]3CN(S(=O)(=O)c4c(C)noc4C)C[C@H]3c3ccccc3)CC2)c1` [Example 118, [1-(3,5-Dimethylisoxazole-4-sulfonyl)-3,4-cis-4-phenylpyrrolidin-3-yl]-[4-(2,5-dimethylphenyl)piperazin-1-yl]methanone trifluoroacetate], the pEC50 (Homo sapiens, THP-1) was 6.46.
`Cc1ccc(N2CCN(C(=O)[C@@H]3CN(S(=O)(=O)c4cccs4)C[C@H]3c3ccccc3)CC2)cc1C` (racemic) [Example 42, [4-(3,4-Dimethylphenyl)piperazin-1-yl]-[3,4-trans-4-phenyl-1-(thiophene-2-sulfonyl)pyrrolidin-3-yl)methanone] showed a pEC50 (Homo sapiens, THP-1) of 4.73.
